Tests used:
[1] = tested on: hGLP1R^A316T-SmBiT versus hGLP1R^WT-SmBiT; experiment: Mini-Gs recruitment by NanoBiT complementation; format: cell-based, human; conditions: serial doses up to 100 nM; n = 5; Fig. 7L
Description: For mini-Gs recruitment, INS-1 832/3 Glp1r^−/− cells were seeded in 6-cm dishes and transiently cotransfected with 1.7 μg each of hGLP1R^WT or ^A316T-SmBiT and LgBiT-mini-Gs constructs for 24 hours. Cells were then detached, resuspended in Hanks’ balanced salt solution (HBSS) containing NanoGlo Live Cell Reagent (1:20; Promega) with furimazine, and seeded onto white 96-well half-area plates. Baseline luminescence was immediately recorded over 8 min at 37°C in a Flexstation 3 plate reader (Molecular Devices) and for a further 30 min after GLP-1RA addition at serial doses up to 100 nM. Readings were taken every 30 s and normalized to average well baseline, and average vehicle-induced signal was subtracted to establish the agonist-induced effect. To measure β-arrestin 2 recruitment, cells were processed as above with slight modifications: INS-1 832/3 Glp1r^−/− cells were cotransfected with 1.77 μg each of hGLP1R^WT or ^A316T-SmBiT and LgBiT–β-arrestin 2 plasmids for 24 hours, and GLP-1RAs were added at serial doses up to 1 μM. AUCs were calculated for each agonist concentration and fitted to log(agonist) versus response four-parameter curves using GraphPad Prism 10.1.2, with errors propagated for mini-Gs over β-arrestin 2 recruitment bias calculations.

[2] = tested on: SNAP/FLAG-hGLP1R^A316T versus ^WT; experiment: GLP-1R recycling assay; format: cell-based, human; conditions: INS-1 832/3 sublines; 1 hour agonist, 1 and 3 hours recycling; n = 3-4; Fig. 7H
Description: INS-1 832/3 Glp1r^−/− SNAP/FLAG-hGLP1R^WT or ^A316T cells were seeded as above for 24 hours, washed with HBSS, pretreated with vehicle or GLP-1RA for 1 hour at 37°C in complete medium, washed again, and treated with 100 nM exendin-4–TMR in reverse time order for 3 hours and 1 hour at 37°C in complete medium. Plates were then promptly imaged after washing as above. In this assay, total exendin-4–TMR uptake is indicative of residual surface receptor at the end of the GLP-1RA treatment and cumulative reappearance of the surface receptor during the recycling period.

[3] = tested on: SNAP/FLAG-hGLP1R^A316T versus ^WT; experiment: Real-time cytosolic calcium assay (Cal-520, AM) in transduced hGLP1R^-/- mouse islets; format: cell-based, human; conditions: 100 nM; 6 mM glucose; AUC; n = 3-4; fig. S7D-H
Description: signal serially monitored for 30 min. The TR-FRET ratio, i.e. the ratio of fluorescence intensities at 590 and 490 nm, was considered indicative of the proximity of the GLP-1R ECD to the plasma membrane.
Baseline-normalised AUCs were used to generate concentration– response curves fitted using GraphPad Prism 10.1.2, with logEC50 and Emax calculated for each replicate dose response curve.
Real- time c ytosolic c alcium a ssay hGLP1R-/- mouse islets were transduced with pAV- SNAP/FLAG-hGLP1RWT or A316T adenoviruses for 24 hours, labelled with the Ca2+ dye Cal-520, AM (4.5 μM; Stratech) diluted in KBRH buffer containing 6 mM glucose for 1 hour and encased in Matrigel onto […] glass bottom MatTek dishes. Islets were then imaged every 6 s at 488 nm using a Nikon Eclipse Ti microscope with an ORCA-Flash 4.0 camera (Hamamatsu) and Metamorph software (Molecular Devices) at 37°C on a heated stage before and after addition of the indicated GLP-1RA followed by 11 mM glucose and then 20 mM KCl at the indicated time points. Raw fluorescence intensity traces from islet ROIs were extracted using Fiji. Responses were plotted relative to the average fluorescence intensity during the 6 mM glucose baseline period, before agonist addition, and AUCs separately calculated for the GLP- 1RA + 6 mM and 11 mM glucose […]
Isolation o f detergent-resistant membrane (D RM) fractions
To purify lipid rafts, […] fractions were isolated from INS-1 832/3 Glp1r-/- SNAP/FLAG-hGLP1RWT or A316T cells by ultracentrifugation based on their insolubility in non-ionic detergents at 4°C and their low density because of their high lipid-to- protein ratio. Cells seeded onto 6-cm dishes were stimulated ± 100 […]
mM tris-HCl, pH 7.0 buffer supplemented with cOmplete EDTA-free protease inhibitor cocktail (Roche) and phosphatase inhibitor cocktail 2 (Sigma-Aldrich) for 10-15 minutes on a rocking platform at 4°C. The cell suspension was collected and homogenised by passing through a 21-gauge needle, followed by ultracentrifugation at 63,000 g f or 1 hour at 4°C with a Sorvall Discovery M120 ultracentrifuge. Pellets

[4] = tested on: SNAP/FLAG-hGLP1R^A316T versus ^WT; experiment: Real-time cAMP imaging (cADDis) in INS-1 832/3 sublines; format: cell-based, rat; conditions: 100 nM, n = 4, no significant differences, fig. S8K-P
Description: (§1) To measure cAMP, hGLP1R^A316T/A316T versus ^+/+ control mouse islets, or INS-1 832/3 SNAP/FLAG-hGLP1R^WT versus ^A316T cells cultured on glass-bottom MatTek dishes, were transduced with cADDis (Green Gs cADDis cAMP Kit, Montana Molecular), a baculovirus genetically encoding a fluorescent cAMP in situ biosensor, following the manufacturer’s instructions. Transduced islets were subsequently encased into Matrigel on glass-bottom MatTek dishes 24 hours after transduction, and both islets and cells were imaged at λex = 488 nm in a Nikon Eclipse Ti spinning disk confocal microscope and 20× objective with an ORCA-Flash 4.0 camera (Hamamatsu) for time-lapse recordings with image acquisitions every 6 s in KRBH buffer containing 0.1% (w/v) BSA and 6 mM glucose for 2 min to record the baseline, with 100 nM GLP-1RA subsequently added by manual pipetting, and islets imaged for a further 5 min before addition of 100 μM IBMX + 10 μM forskolin for the final 2 min of the acquisition. Raw green fluorescence intensity traces were extracted from whole islet regions of interest (ROIs) using Fiji, and mean intensities were calculated for each ROI and time point. Responses were plotted relative to average fluorescence intensity per islet during the baseline period before GLP-1RA addition.

[5] = tested on: human GLP-1R A316T versus WT; experiment: Real-time cAMP imaging (cADDis) in mouse islets; format: cell-based; conditions: chow-fed mouse islets; 100 nM; 6 mM glucose; AUC; n = 4; not significant; Fig. 5D-F
Description: as §1

Substance | A316T mini-Gs recruitment versus WT, log(Emax/EC50) [1] | A316T receptor recycling to the plasma membrane versus WT [2] | Agonist-induced Ca^2+ responses, A316T versus WT [3] | cAMP responses, A316T versus WT [4] | cAMP response to agonist, A316T/A316T versus +/+ islets [5]
GLP-1(7-36)NH2 | No significant changes | significantly reduced | not significantly different | tendency for increased cAMP | 
exendin-F1 | increased potency | not different from WT | increased | tendency for increased cAMP | near-significant increase in cAMP
exendin-4 | No significant changes | not different from WT | not significantly different | reduced responses | trend for reduced cAMP

— paper PMC13267291, “In vivo functional profiling and structural characterization of the human GLP1R A316T variant” (Science Advances, 2026)
